Source: patent US20090233796A1, “HERBICIDAL COMPOSITION” (SYNGENTA CROP PROTECTION, INC., priority 2004, published 2009)

What was measured:
Assay type in all cases: in vivo
SETARIA SP. = experiment: Compound (A) with paraquat, weed plots; conditions: 700 g/ha; 27 DAA; No. 1.2
Protocol: (§1) In these tests, various weeds were treated with paraquat alone at rates equivalent to 700 g per hectare and 840 g per hectare, compound (A) alone at rates equivalent to 10 g per hectare and 20 g per hectare, and with a mixture of paraquat and compound (A) at rates equivalent to the sum of these. The compositions were formulated as an emulsifyable concentrate (EC).
(§2) The results in the table under each application are the percentage of the weeds plants that were killed.

SETARIA VIRIDIS = experiment: Compound (A) with paraquat, weed plots; conditions: 700 g/ha; 43 DAA; No. 1.3
Protocol: as §1, §2

DIGITARIA CILIARIS = experiment: Compound (A) with paraquat, weed plots; conditions: 700 g/ha; 51 DAA; No. 1.7
Protocol: as §1, §2

SONCHUS ASPER = experiment: Compound (A) with paraquat, weed plots; conditions: 840 g/ha; 32 DAA; No. 1.10
Protocol: as §1, §2

LOLIUM RIGIDUM = experiment: Compound (A) with paraquat, weed plots; conditions: 700 g/ha; 41 DAA; No. 1.4
Protocol: as §1, §2

CONYZA SP. = experiment: Compound (A) with paraquat, weed plots; conditions: 700 g/ha, 5 DAA
Protocol: as §1, §2

E[…]-GALLI = experiment: Compound (A) with paraquat, weed plots; conditions: 700 g/ha; 51 DAA; No. 1.8
Protocol: as §1, §2

LAMIUM PURPUREUM = experiment: Compound (A) with paraquat, weed plots; conditions: 700 g/ha; 2 DAA; No. 1.5
Protocol: as §1, §2

CYPERUS ROTUNDUS = experiment: Compound (A) with paraquat, weed plots; conditions: 840 g/ha; 56 DAA; No. 1.11
Protocol: as §1, §2

VERONICA PERSICA = experiment: Compound (A) with paraquat, weed plots; conditions: 700 g/ha; 69 DAA; No. 1.6
Protocol: as §1, §2

STELLARIA MEDIA = experiment: Compound (A) with triasulfuron, weed plots; conditions: 26 g per hectare; 30 DAA; No. 3.1
Protocol: In these tests, various weeds were treated with triasulfuron alone at a rate equivalent to 26 g per hectare, Compound (A) alone at a rate equivalent to 10 g per hectare, and to a mixture of triasulfuron and Compound (A) at rates equivalent to the sum of these. The compositions were formulated as an emulsifyable concentrate (EC).
The results in the table under each application are the percentage of the plants that were killed.

| Structure (SMILES) | percentage of the weeds plants that were killed (SETARIA SP.) [%] | percentage of the weeds plants that were killed (SETARIA VIRIDIS) [%] | percentage of the weeds plants that were killed (DIGITARIA CILIARIS) [%] | percentage of the weeds plants that were killed (SONCHUS ASPER) [%] | percentage of the weeds plants that were killed (LOLIUM RIGIDUM) [%] | percentage of the weeds plants that were killed (CONYZA SP.; No. 1.1) [%] | percentage of the weeds plants that were killed (CONYZA SP.; No. 1.9) [%] | percentage of the weeds plants that were killed (E[…]-GALLI) [%] | percentage of the weeds plants that were killed (LAMIUM PURPUREUM) [%] | percentage of the weeds plants that were killed (CYPERUS ROTUNDUS) [%] | percentage of the weeds plants that were killed (VERONICA PERSICA) [%] | percentage of the plants that were killed (STELLARIA MEDIA) [%] |
| --- | --- | --- | --- | --- | --- | --- | --- | --- | --- | --- | --- | --- |
| C[n+]1ccc(-c2cc[n+](C)cc2)cc1 [paraquat, reference compound] | 0 | 0 | 0 | 0 | 53 | 2 | 2 | 0 | 53 | 65 | 25 |  |
| COc1nc(C)nc(NC(=O)NS(=O)(=O)c2ccccc2OCCCl)n1 [Triasulfuron, triasulfuron, reference compound] |  |  |  |  |  |  |  |  |  |  |  | 25 |
